Measurements from patent US10392378B2, “Derivatives of 5-phenyl- or 5-heteroarylathiazol-2-carboxylic amide useful for the treatment of inter alia cystic fibrosis” (Proteostasis Therapeutics, Inc., priority 2014, dated 2019).

How the values were obtained:
[1] = molecular target: T1, ΔF508-CFTR (Homo sapiens, UniProt P13569, DEL508-508); assay: Ussing measurements; assay type: cell-based; conditions: compound at 10 uM and VX-809 at 3 uM; primary hBE cells homozygous ΔF508; 24 hours treatment
T1 construct: Primary lung epithelial cells homozygous for the Cystic Fibrosis-causing ΔF508 mutation; endogenous in cells; host or cells: primary human bronchial (lung) epithelial cells homozygous for ΔF508, differentiated at air-liquid interface
T1 sequence (P13569 with tags, fused parts or gaps DEL508-508): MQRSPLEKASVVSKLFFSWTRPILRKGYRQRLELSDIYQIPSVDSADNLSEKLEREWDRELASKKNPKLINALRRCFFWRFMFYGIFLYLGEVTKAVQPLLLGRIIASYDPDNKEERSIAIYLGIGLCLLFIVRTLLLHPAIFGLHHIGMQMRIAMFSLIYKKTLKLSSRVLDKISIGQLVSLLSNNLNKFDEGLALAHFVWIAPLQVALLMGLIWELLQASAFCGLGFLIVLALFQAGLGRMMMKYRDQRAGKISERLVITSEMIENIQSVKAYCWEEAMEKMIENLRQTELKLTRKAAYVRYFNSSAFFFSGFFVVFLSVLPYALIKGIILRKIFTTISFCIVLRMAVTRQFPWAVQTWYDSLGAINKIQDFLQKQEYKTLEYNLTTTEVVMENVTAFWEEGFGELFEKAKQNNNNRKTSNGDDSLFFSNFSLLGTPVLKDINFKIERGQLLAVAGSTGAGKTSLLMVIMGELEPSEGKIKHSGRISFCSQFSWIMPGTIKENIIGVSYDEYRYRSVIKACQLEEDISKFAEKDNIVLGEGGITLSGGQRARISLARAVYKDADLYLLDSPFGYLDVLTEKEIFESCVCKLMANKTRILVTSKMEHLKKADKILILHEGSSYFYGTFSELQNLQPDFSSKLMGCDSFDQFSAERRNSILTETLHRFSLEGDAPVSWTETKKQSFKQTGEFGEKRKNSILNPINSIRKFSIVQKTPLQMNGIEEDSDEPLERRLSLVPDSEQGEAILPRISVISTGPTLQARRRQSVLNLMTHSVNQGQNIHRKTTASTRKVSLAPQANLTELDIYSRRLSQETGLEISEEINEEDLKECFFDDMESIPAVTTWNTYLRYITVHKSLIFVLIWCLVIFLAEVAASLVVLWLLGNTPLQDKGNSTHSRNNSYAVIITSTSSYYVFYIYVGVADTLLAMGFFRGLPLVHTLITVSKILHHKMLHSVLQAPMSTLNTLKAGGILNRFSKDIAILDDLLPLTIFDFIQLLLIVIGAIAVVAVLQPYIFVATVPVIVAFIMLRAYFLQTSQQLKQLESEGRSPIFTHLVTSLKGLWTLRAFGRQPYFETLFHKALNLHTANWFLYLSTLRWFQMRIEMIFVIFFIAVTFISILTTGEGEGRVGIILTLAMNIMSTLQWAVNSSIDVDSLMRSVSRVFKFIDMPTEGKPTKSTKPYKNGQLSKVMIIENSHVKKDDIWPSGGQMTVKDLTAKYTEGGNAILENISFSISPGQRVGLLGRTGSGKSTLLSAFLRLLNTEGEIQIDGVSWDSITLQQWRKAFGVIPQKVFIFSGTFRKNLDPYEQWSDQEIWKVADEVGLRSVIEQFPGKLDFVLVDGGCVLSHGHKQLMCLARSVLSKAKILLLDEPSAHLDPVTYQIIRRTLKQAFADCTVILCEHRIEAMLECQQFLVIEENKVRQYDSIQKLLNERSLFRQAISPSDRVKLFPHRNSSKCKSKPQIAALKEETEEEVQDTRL
Procedure: As discussed above, Ussing measurements are used to measure CFTR activity. In this method, primary lung epithelial cells (hBEs) homozygous for the Cystic Fibrosis-causing ΔF508 mutation are differentiated for a minimum of 4 weeks in an air-liquid interface on SnapWell filter plates prior to the Ussing measurements. Cells are apically mucus-washed for 30 minutes prior to treatment with compounds. The basolateral media is removed and replaced with media containing the compound of interest diluted to its final concentration from DMSO stocks. Treated cells are incubated at 37° C. and 5% CO2 for 24 hours. At the end of the treatment period, the cells on filters are transferred to the Ussing chamber and equilibrated for 30 minutes. The short-circuit current is measured in voltage clamp-mode (Vhold=0 mV), and the entire assay is conducted at a temperature of 36° C. −36.5° C. Once the voltages stabilized, the chambers are clamped, and data is recorded by pulse readings every 5 seconds. Following baseline current stabilization, the following additions can be applied and the changes in current and resistance of the cells can be monitored: • 1. Benzamil to the apical chamber to inhibit ENaC sodium channel. • 2. Forskolin to both chambers to activate ΔF508-CFTR by phosphorylation. • 3. Genistein to both chambers to potentiate ΔF508-CFTR channel opening. • 4. CFTRinh-172 to the apical chamber to inhibit ΔF508-CFTR Cl-conductance.
The inhibitable current (that current that is blocked by CFTRinh-172) is measured as the specific activity of the ΔF508-CFTR channel, and increases in response to compound in this activity over that observed in vehicle-treated samples are identified as the correction of ΔF508-CFTR function imparted by the compound tested.

[2] = molecular target: T1, ΔF508-CFTR; assay: hBE equivalent current (Ieq) assay; assay type: cell-based; conditions: compound at 10 uM and VX-809 at 1 uM; primary hBE cells homozygous ΔF508; 24 hours treatment
Procedure: Primary lung epithelial cells homozygous for the Cystic Fibrosis-causing ΔF508 mutation were differentiated for a minimum of 4 weeks in an air-liquid interface on Costar 24 well HTS filter plates prior to the equivalent current (Ieq) measurements. Cells were apically mucus-washed for 30 minutes 24h prior to treatment with compounds. The basolateral media was removed and replaced with media containing the compound of interest diluted to its final concentration from DMSO stocks. Treated cells were incubated at 37° C. and 5% CO2 for 24 hours. At the end of the treatment period, the media was changed to the Ieq experimental solution for 30 minutes before the experiment and plates are maintained in a CO2-free incubator during this period. The plates containing the cells were then placed in pre-warmed heating blocks at 36° C.±0.5 for 15 minutes before measurements are taken. The transepithelial voltage (VT) and conductance (GT) were measured using a custom 24 channel current clamp (TECC-24) with 24 well electrode manifold. The Ieq assay measurements were made following additions with standardized time periods: • 1. The baseline VT and GT values were measured for approximately 20 minutes. • 2. Benzamil was added to block ENaC for 15 minutes. • 3. Forskolin plus VX-770 were added to maximally activate ΔF508-CFTR for 27 minutes. • 4. Bumetanide was added to inhibit the NaK2Cl cotransporter and shut-off secretion of chloride.
The activity data captured was the area under the curve (AUC) for the traces of the equivalent chloride current. The AUC was collected from the time of the forskolin/VX-770 addition until the inhibition by bumetanide addition. Correction in response to compound treatment was scored as the increase in the AUC for compound-treated samples over that of vehicle-treated samples. (** indicates activity ≥200% of VX-809 (1 uM) with compound at 10 uM and VX-809 at 1 uM; * indicates activity 100-200% of VX-809 (1 uM) with compound at 10 uM and VX-809 at 1 uM. ^##indicates activity ≥200% of VX-809 (3 uM) with compound at 10 uM and VX-809 at 3 uM; ^#indicates activity 100-200% of VX-809 (3 uM) with compound at 10 uM and VX-809 at 3 uM

## O=C(NC1CC(c2nnc(CO)o2)C1)c1ncc(-c2ccccc2)s1 (stereo not drawn) [Example 10, N-cis-3-(5-(hydroxymethyl)-1,3,4-oxadiazol-2-yl)cyclobutyl)-5-phenylthiazole-2-carboxamide]
[1]
  Ussing (CFTRinh-172 inhibitable current, activity relative to VX-809): ## (activity ≥200% of VX-809 (3 uM) with compound at 10 uM and VX-809 at 3 uM)

## Cn1nccc1CCCNC(=O)c1ncc(-c2ccccc2)s1 [Example 5, N-(3-(1-methyl-1H-pyrazol-5-yl)propyl)-5-phenylthiazole-2-carboxamide]
[2]
  leq (AUC of equivalent chloride current, activity relative to VX-809): * (activity 100-200% of VX-809 (1 uM) with compound at 10 uM and VX-809 at 1 uM)

## Cc1nnn(CCNC(=O)c2ncc(-c3ccccc3)s2)c1CO [Example 9, N-(2-(5-(hydroxymethyl)-4-methyl-1H-1,2,3-triazol-1-yl)ethyl)-5-phenylthiazole-2-carboxamide]
[2]
  leq (AUC of equivalent chloride current, activity relative to VX-809): ** (activity ≥200% of VX-809 (1 uM) with compound at 10 uM and VX-809 at 1 uM)

## O=C(NCCc1nnc(CO)o1)c1ncc(-c2ccccc2)s1 [Example 7, N-(2-(5-(hydroxymethyl)-1,3,4-oxadiazol-2-yl)ethyl)-5-phenylthiazole-2-carboxamide]
[2]
  leq (AUC of equivalent chloride current, activity relative to VX-809): ** (activity ≥200% of VX-809 (1 uM) with compound at 10 uM and VX-809 at 1 uM)
[1]
  Ussing (CFTRinh-172 inhibitable current, activity relative to VX-809): ## (activity ≥200% of VX-809 (3 uM) with compound at 10 uM and VX-809 at 3 uM)

## O=C(NCC1CCCO1)c1ncc(-c2ccccc2)s1 (stereo not drawn) [Example 1, 5-phenyl-N-((tetrahydrofuran-2-yl)methyl)thiazole-2-carboxamide]
[2]
  leq (AUC of equivalent chloride current, activity relative to VX-809): ** (activity ≥200% of VX-809 (1 uM) with compound at 10 uM and VX-809 at 1 uM)

## O=C(NCCc1nnc(CO)s1)c1ncc(-c2ccccc2)s1 [Example 6, N-(2-(5-(hydroxymethyl)-1,3,4-thiadiazol-2-yl)ethyl)-5-phenylthiazole-2-carboxamide]
[2]
  leq (AUC of equivalent chloride current, activity relative to VX-809): ** (activity ≥200% of VX-809 (1 uM) with compound at 10 uM and VX-809 at 1 uM)
[1]
  Ussing (CFTRinh-172 inhibitable current, activity relative to VX-809): ## (activity ≥200% of VX-809 (3 uM) with compound at 10 uM and VX-809 at 3 uM)

## Cc1c(CO)nnn1CCNC(=O)c1ncc(-c2ccccc2)s1 [Example 8, N-(2-(4-(hydroxymethyl)-5-methyl-1H-1,2,3-triazol-1-yl)ethyl)-5-phenylthiazole-2-carboxamide]
[2]
  leq (AUC of equivalent chloride current, activity relative to VX-809): ** (activity ≥200% of VX-809 (1 uM) with compound at 10 uM and VX-809 at 1 uM)
[1]
  Ussing (CFTRinh-172 inhibitable current, activity relative to VX-809): ## (activity ≥200% of VX-809 (3 uM) with compound at 10 uM and VX-809 at 3 uM)

## O=C(NC1CC(n2cc(CO)nn2)C1)c1ncc(-c2ccccc2)s1 (stereo not drawn) [Example 12, N-trans-3-(5-(hydroxymethyl)-1H-1,2,3-triazol-1-yl)cyclobutyl)-5-phenylthiazole-2-carboxamide]
[1]
  Ussing (CFTRinh-172 inhibitable current, activity relative to VX-809): ## (activity ≥200% of VX-809 (3 uM) with compound at 10 uM and VX-809 at 3 uM)

## C[C@@H](O)c1nnc(C2CC(NC(=O)c3ncc(-c4ccccc4)s3)C2)o1 (stereo partly drawn) [Example 11]
[1]
  Ussing (CFTRinh-172 inhibitable current, activity relative to VX-809): ## (activity ≥200% of VX-809 (3 uM) with compound at 10 uM and VX-809 at 3 uM)

## COCCNC(=O)c1ncc(-c2ccccc2)s1 [Example 2, N-(2-methoxyethyl)-5-phenylthiazole-2-carboxamide]
[2]
  leq (AUC of equivalent chloride current, activity relative to VX-809): ** (activity ≥200% of VX-809 (1 uM) with compound at 10 uM and VX-809 at 1 uM)

## O=C(NCCCn1ccnc1)c1ncc(-c2ccccc2)s1 [Example 4, N-(3-(1H-imidazol-1-yl)propyl)-5-phenylthiazole-2-carboxamide]
[2]
  leq (AUC of equivalent chloride current, activity relative to VX-809): ** (activity ≥200% of VX-809 (1 uM) with compound at 10 uM and VX-809 at 1 uM)

## O=C(NCCN1CCOCC1)c1ncc(-c2ccccc2)s1 [Example 3, N-(2-morpholinoethyl)-5-phenylthiazole-2-carboxamide]
[2]
  leq (AUC of equivalent chloride current, activity relative to VX-809): ** (activity ≥200% of VX-809 (1 uM) with compound at 10 uM and VX-809 at 1 uM)
